Laboratory results published in patent US12551421B2, “N-heptyl-glyceryl ether and synergistically active preservatives” (Evonik Operations GmbH, priority 2020, dated 2026).
In brackets after ≈: the same amount, converted by molar mass.

Columns and labels:
C. albicans = test: Preservation challenge test in O/W emulsion base #1, log reduction of viable microorganisms by plate count; assay type: cell-based; settings: combined with another antimicrobial component in base #1, up to 28 days, FIGS. 20 to 25
Method: (§1) An O/W emulsion (base #1) was prepared as follows, and n-heptyl glyceryl ether, further antimicrobial compounds and combinations thereof were added to these bases:
(§2) Processing: • 1. Premix phase A and B separately and heat up to 78° C. • 2. Add phase A1 to A under stirring and wait until everything is dissolved. • 3. Add phase B to A under stirring. (Speed 6, for 30 sec.) Homogenize for 90 sec. using an Ultra Turrax. • 4. Cool down using a water bath • 5. Adjust pH.
(§3) Preparatory to the test, the surface of casein soya bean digest agar for bacteria or Saboraud-dextrose agar without the addition of antibiotics for fungi is inoculated with the recently grown stock culture of each of the specified microorganisms. […]
(§4) To count the viable microorganisms in the inoculated products, the agar medium used for the initial cultivation of the respective microorganism is used. […] At zero hour and at 7, 14 and 28 days 1 ml is removed from the sample and the number of viable microorganisms is determined by plate count. […]
To determine the efficacy of the antimicrobial composition, n-heptyl glyceryl ether, another antimicrobial compound and combinations thereof were incorporated into base #1 as shown above. The antimicrobial activity against C. albicans was then evaluated as described above. […]

A. brasiliensis = test: as above; assay type: cell-based; settings: combined with another antimicrobial component in base #1, up to 28 days, FIGS. 1 to 12
S. aureus = test: as above; assay type: cell-based; settings: combined with another antimicrobial component in base #1, up to 28 days, FIGS. 12 to 19
Method: as §1, §2, §3, §4
To determine the efficacy of the antimicrobial composition, n-heptyl glyceryl ether, another antimicrobial compound and combinations thereof were incorporated into base as shown above. The antimicrobial activity against S. aureus was then evaluated as described above. […]

[1] = Water solubility / critical micelle concentration of n-heptyl-glyceryl ether; assay type: physicochemical; settings: water, without component B); read-out: water solubility before micelles are forming
Text: N-heptyl-glyceryl ether has a water solubility of approximately 2 g/l before micelles are forming.

Compound: CCCCC(CC)COCC(O)CO (stereo not shown) [ethylhexyl glycerin, reference compound]
- synergistic antimicrobial effect (log 10 reduction of combination greater than sum of individual components) (C. albicans): No such synergism
- synergistic antimicrobial effect (log 10 reduction of combination greater than sum of individual components) (A. brasiliensis): No such synergism
- synergistic antimicrobial effect (log 10 reduction of combination greater than sum of individual components) (S. aureus): No such synergism

Compound: CCCCCCCOCC(O)CO (stereo not shown) [n-heptyl glyceryl ether]
- synergistic antimicrobial effect (log 10 reduction of combination greater than sum of individual components) (C. albicans): synergistic antimicrobial effects
- synergistic antimicrobial effect (log 10 reduction of combination greater than sum of individual components) (A. brasiliensis): synergistic antimicrobial effects
- solubility [1]: ~2000 µg/mL (≈ 10.5 mM)
- synergistic antimicrobial effect (log 10 reduction of combination greater than sum of individual components) (S. aureus): synergistic antimicrobial effects
